Tests used:
Type in all cases: cell-based, human
p-AKT (S473) = assay: Western blot p-AKT (S473) in HCC827 and HCC827GR cells; settings: DBG 3, 6, 12 nM, 48 h
Description: (§1) HaCaT cells were grown in DMEM, whereas HCC827 and HCC827GR cells were grown in RPMI 1640. All culture media were supplemented with FBS (10 %) and P/S (1 %), and the cells were grown at 37 °C in 5 % CO2.
(§2) Cells were lysed in RIPA buffer, and protein concentration was determined using a Bio-Rad DC Protein Assay kit (Bio-Rad, Hercules, CA, USA). Protein samples from the cell lysates were resolved by sodium dodecyl sulfate-polyacrylamide gel electrophoresis and then transferred onto polyvinylidene fluoride membranes. The membranes were blocked with 3 % or 5 % skim milk and then incubated at 4 °C overnight with the indicated primary antibodies, followed by the corresponding horseradish peroxidase-conjugated secondary antibodies at RT for 2 h. Protein bands were visualized using western blotting luminol reagent solution and ImageQuant LAS 500 (GE Healthcare, Uppsala, Sweden). The density of the bands was quantified using ImageJ software (NIH, Bethesda, MD, USA).

HCC827GR cells = assay: Cell cycle distribution (Muse, PI), HCC827GR; settings: 48 h
Description: as §1
Cell cycle distribution analysis was performed using a Muse™ Cell Cycle Kit (MCH100106, Merck Millipore, Billerica, MA) based on propidium iodide (PI) staining. The cells were collected, fixed in 70 % ethanol overnight at -20 °C, and then stained with a Muse™ Cell Cycle Reagent at RT for 30 min in the dark. The cell cycle distribution was measured using a Muse™ Cell Analyzer (Merck Millipore).

CDK6 = assay: Immunoblot CDK6 in HCC827 and HCC827GR cells; settings: for CDK6 protein ratio: relative to DBG 0 nM = 1.00
Description: as §1, §2

HCC827 cells [1] = assay: Intracellular ROS (Muse Oxidative Stress Kit), HCC827; settings: 48 h, control 7.32 %
Description: as §1
The levels of intracellular ROS were measured using a Muse™ Oxidative Stress Kit (MCH100111, Merck Millipore) in accordance with the manufacturer's instructions. The cells were incubated with a Muse™ Oxidative Stress Reagent working solution in the dark at 37 °C for 30 min. Intracellular ROS generation was measured using a Muse™ Cell Analyzer.

HCC827 cells [2] = assay: MTT viability after NAC pretreatment, HCC827; settings: for cell viability (relative to untreated = 100.00): HCC827
Description: All culture media were supplemented with FBS (10 %) and P/S (1 %), and the cells were grown at 37 °C in 5 % CO2.
The cells were treated with MTT and incubated for 2 h. The supernatants were removed, and the remaining formazan crystals were dissolved in DMSO before absorbance measurement at 570 nm using a Multiscan GO spectrophotometer (Thermo Fisher Scientific, Vantaa, Finland).

p-AKT = assay: Immunoblot p-AKT with NAC pretreatment, HCC827 and HCC827GR cells; settings: for p-AKT protein Ratio: control = 1.00
Description: as §1, §2

PARP = assay: Immunoblot PARP in HCC827 and HCC827GR cells; settings: for PARP protein Ratio: DBG 0 nM = 1.00
Description: as §1, §2

In the case of `COc1ccc(C[C@H]2C(=O)N[C@@H](C)C(=O)N(C)[C@H]3Cc4ccc(cc4)Oc4cc(ccc4O[C@@H]4O[C@H](CO)[C@@H](O)[C@H](O)[C@H]4O)C[C@@H](C(=O)N[C@H](C)C(=O)N[C@@H](C)C(=O)N2C)N(C)C3=O)cc1` [DBG, deoxybouvardin glucoside], the “phosphorylation level of AKT” value (p-AKT (S473)) is reported as “decreased”, the G0/G1 distribution (HCC827GR cells; DBG 3 nM, mean of 3 samples) is reported as 53.10 and the G2/M distribution (HCC827GR cells; DBG 3 nM, mean of 3 samples) is reported as 37.67. The S distribution (HCC827GR cells; DBG 3 nM, mean of 3 samples) was 9.23, the G0/G1 distribution (HCC827GR cells; DBG 3 nM, sample 1) was 51.80 and the G2/M distribution (HCC827GR cells; DBG 3 nM, sample 1) was 39.10. For the same compound, the S distribution (HCC827GR cells; DBG 3 nM, sample 1) was 9.10, the G0/G1 distribution (HCC827GR cells; DBG 3 nM, sample 2) was 53.80 and the G2/M distribution (HCC827GR cells; DBG 3 nM, sample 2) was 36.60. The S distribution (HCC827GR cells; DBG 3 nM, sample 2) was 9.60, the G0/G1 distribution (HCC827GR cells; DBG 3 nM, sample 3) was 53.70 and the G2/M distribution (HCC827GR cells; DBG 3 nM, sample 3) was 37.30. For the same compound, the S distribution (HCC827GR cells; DBG 3 nM, sample 3) was 9.00, the G0/G1 distribution (HCC827GR cells; DBG 6 nM, mean of 3 samples) was 54.77 and the G2/M distribution (HCC827GR cells; DBG 6 nM, mean of 3 samples) was 36.33. It also gave a S distribution (HCC827GR cells; DBG 6 nM, mean of 3 samples) of 8.90, a G0/G1 distribution (HCC827GR cells; DBG 6 nM, sample 1) of 54.30 and a G2/M distribution (HCC827GR cells; DBG 6 nM, sample 1) of 36.50. It also gave a S distribution (HCC827GR cells; DBG 6 nM, sample 1) of 9.20, a G0/G1 distribution (HCC827GR cells; DBG 6 nM, sample 2) of 53.10 and a G2/M distribution (HCC827GR cells; DBG 6 nM, sample 2) of 37.80. For the same compound, the S distribution (HCC827GR cells; DBG 6 nM, sample 2) was 9.10, the G0/G1 distribution (HCC827GR cells; DBG 6 nM, sample 3) was 56.90 and the G2/M distribution (HCC827GR cells; DBG 6 nM, sample 3) was 34.70. For the same compound, the S distribution (HCC827GR cells; DBG 6 nM, sample 3) was 8.40, the G0/G1 distribution (HCC827GR cells; DBG 12 nM, mean of 3 samples) was 56.93 and the G2/M distribution (HCC827GR cells; DBG 12 nM, mean of 3 samples) was 34.27. It also gave a S distribution (HCC827GR cells; DBG 12 nM, mean of 3 samples) of 8.77, a G0/G1 distribution (HCC827GR cells; DBG 12 nM, sample 1) of 57.50 and a G2/M distribution (HCC827GR cells; DBG 12 nM, sample 1) of 33.40. It also gave a S distribution (HCC827GR cells; DBG 12 nM, sample 1) of 9.00, a G0/G1 distribution (HCC827GR cells; DBG 12 nM, sample 2) of 56.20 and a G2/M distribution (HCC827GR cells; DBG 12 nM, sample 2) of 35.10. It also gave a S distribution (HCC827GR cells; DBG 12 nM, sample 2) of 8.70, a G0/G1 distribution (HCC827GR cells; DBG 12 nM, sample 3) of 57.10 and a G2/M distribution (HCC827GR cells; DBG 12 nM, sample 3) of 34.30. The S distribution (HCC827GR cells; DBG 12 nM, sample 3) was 8.60, the “increase in proportion of cells at G1 phase” value (HCC827GR cells; concentration not given) was 2.36% and the “level of CDKs (CDK6)” value (CDK6; DBG 3, 6, 12 nM, 48 h) was “significantly decreased”. The CDK6 protein/actin (CDK6; HCC827, DBG 3 nM, DBG 0 nM 0.53) was 0.32, the CDK6 protein ratio (CDK6; HCC827, DBG 3 nM) was 0.60 and the CDK6 protein/actin (CDK6; HCC827, DBG 6 nM, DBG 0 nM 0.53) was 0.19. It also gave a CDK6 protein ratio (CDK6; HCC827, DBG 6 nM) of 0.36, a CDK6 protein/actin (CDK6; HCC827, DBG 12 nM, DBG 0 nM 0.53) of 0.07 and a CDK6 protein ratio (CDK6; HCC827, DBG 12 nM) of 0.14. It also gave a CDK6 protein/actin (CDK6; HCC827GR, DBG 3 nM, DBG 0 nM 0.70) of 0.55, a CDK6 protein ratio (CDK6; HCC827GR, DBG 3 nM) of 0.79 and a CDK6 protein/actin (CDK6; HCC827GR, DBG 6 nM, DBG 0 nM 0.70) of 0.47. It also gave a CDK6 protein ratio (CDK6; HCC827GR, DBG 6 nM) of 0.67, a CDK6 protein/actin (CDK6; HCC827GR, DBG 12 nM, DBG 0 nM 0.70) of 0.30 and a CDK6 protein ratio (CDK6; HCC827GR, DBG 12 nM) of 0.43. It also gave an ROS level (HCC827 cells [1]; DBG 3 nM) of 18.40%, an ROS level (HCC827 cells [1]; DBG 6 nM) of 47.32% and an ROS level (HCC827 cells [1]; DBG 12 nM) of 70.22%. For the same compound, the “cell viability (relative to untreated = 100.00)” value (HCC827 cells [2]; DBG 12 nM, mean of 3) was 45.66, the “cell viability (relative to untreated = 100.00)” value (HCC827 cells [2]; DBG 12 nM, replicate 1) was 44.99 and the “cell viability (relative to untreated = 100.00)” value (HCC827 cells [2]; DBG 12 nM, replicate 2) was 46.50. The “cell viability (relative to untreated = 100.00)” value (HCC827 cells [2]; DBG 12 nM, replicate 3) was 45.48, the “cell viability (relative to untreated = 100.00)” value (HCC827 cells [2]; NAC 4 mM + DBG 12 nM, mean of 3) was 94.90 and the “cell viability (relative to untreated = 100.00)” value (HCC827 cells [2]; NAC 4 mM + DBG 12 nM, replicate 1) was 97.37. The “cell viability (relative to untreated = 100.00)” value (HCC827 cells [2]; NAC 4 mM + DBG 12 nM, replicate 2) was 92.86, the “cell viability (relative to untreated = 100.00)” value (HCC827 cells [2]; NAC 4 mM + DBG 12 nM, replicate 3) was 94.46 and the “anticancer activity of DBG after NAC pretreatment” value (HCC827 cells [2]; NAC 4 mM, 3 h, DBG 48 h) was “decreased”. The “cytotoxicity after NAC pretreatment” value (HCC827 cells [2]; NAC 4 mM, DBG 12 nM) was “a little, if any, cytotoxicity only at 12 nM”, the p-AKT protein/actin (p-AKT; HCC827, DBG 12 nM, control 1.00) was 0.39 and the “p-AKT protein Ratio” value (p-AKT; HCC827, DBG 12 nM) was 0.39. For the same compound, the p-AKT protein/actin (p-AKT; HCC827, NAC 4 mM + DBG 12 nM, control 1.00) was 0.42, the “p-AKT protein Ratio” value (p-AKT; HCC827, NAC 4 mM + DBG 12 nM) was 0.42 and the p-AKT protein/actin (p-AKT; HCC827GR, DBG 12 nM, control 1.04) was 0.30. For the same compound, the “p-AKT protein Ratio” value (p-AKT; HCC827GR, DBG 12 nM) was 0.29, the p-AKT protein/actin (p-AKT; HCC827GR, NAC 4 mM + DBG 12 nM, control 1.04) was 0.17 and the “p-AKT protein Ratio” value (p-AKT; HCC827GR, NAC 4 mM + DBG 12 nM) was 0.16. For the same compound, the “DBG-decreased phosphorylation of AKT with NAC” value (p-AKT; NAC 4 mM pretreatment, DBG 48 h) was “did not change”, the PARP protein/actin (PARP; HCC827, DBG 3 nM, DBG 0 nM 0.88) was 0.17 and the “PARP protein Ratio” value (PARP; HCC827, DBG 3 nM) was 0.20. The PARP protein/actin (PARP; HCC827, DBG 6 nM, DBG 0 nM 0.88) was 0.14, the “PARP protein Ratio” value (PARP; HCC827, DBG 6 nM) was 0.16 and the PARP protein/actin (PARP; HCC827, DBG 12 nM, DBG 0 nM 0.88) was 0.15. The “PARP protein Ratio” value (PARP; HCC827, DBG 12 nM) was 0.17, the PARP protein/actin (PARP; HCC827GR, DBG 3 nM, DBG 0 nM 0.78) was 0.46 and the “PARP protein Ratio” value (PARP; HCC827GR, DBG 3 nM) was 0.59. For the same compound, the PARP protein/actin (PARP; HCC827GR, DBG 6 nM, DBG 0 nM 0.78) was 0.23, the “PARP protein Ratio” value (PARP; HCC827GR, DBG 6 nM) was 0.29 and the PARP protein/actin (PARP; HCC827GR, DBG 12 nM, DBG 0 nM 0.78) was 0.12. The “PARP protein Ratio” value (PARP; HCC827GR, DBG 12 nM) was 0.16 and the “level of whole PARP” value (PARP; HCC827 and HCC827GR, DBG) was “decreased”.

From article PMC11579512, “Deoxybouvardin-glucoside induces apoptosis in non-small cell lung cancer cells by targeting EGFR/MET and AKT signaling pathway” (EXCLI Journal, 2024)
